Assay results: ChEMBL document CHEMBL4184210, “Optimization of novel monobactams with activity against carbapenem-resistant Enterobacteriaceae - Identification of LYS228” (Bioorg Med Chem Lett, 2018)
≈ marks a conversion by molar mass, not a printed value.

Experiments:
Escherichia coli [1] = test: microbe, parasite or virus in culture
Description: Antimicrobial activity against Escherichia coli expressing beta-lactamase CTXM-15 by CLSI broth microdilution method

Escherichia coli [2] = test: microbe, parasite or virus in culture; remark: listed apart in the source
Description: Antimicrobial activity against Escherichia coli expressing beta-lactamase KPC-8 by CLSI broth microdilution method

Escherichia coli [3] = test: microbe, parasite or virus in culture; remark: listed apart in the source
Description: Antimicrobial activity against Escherichia coli expressing beta-lactamase KPC-3 by CLSI broth microdilution method

Escherichia coli [4] = test: microbe, parasite or virus in culture; remark: listed apart in the source
Description: Antimicrobial activity against Escherichia coli expressing beta-lactamase Oxa-48 by CLSI broth microdilution method

Escherichia coli [5] = test: microbe, parasite or virus in culture; remark: listed apart in the source
Description: Antimicrobial activity against Escherichia coli expressing beta-lactamase GIM-1 by CLSI broth microdilution method

Escherichia coli [6] = test: microbe, parasite or virus in culture; remark: listed apart in the source
Description: Antimicrobial activity against Escherichia coli expressing beta-lactamase IMI-1 by CLSI broth microdilution method

Escherichia coli [7] = test: Antimicrobial activity against Escherichia coli expressing beta-lactamase TEM-1 by CLSI broth microdilution method; type: functional
Escherichia coli [8] = test: microbe, parasite or virus in culture; remark: listed apart in the source
Description: Antimicrobial activity against Escherichia coli expressing beta-lactamase SME-1 by CLSI broth microdilution method

Escherichia coli [9] = test: microbe, parasite or virus in culture; remark: listed apart in the source
Description: Antimicrobial activity against Escherichia coli expressing beta-lactamase VIM-1 by CLSI broth microdilution method

Escherichia coli [10] = test: microbe, parasite or virus in culture; remark: listed apart in the source
Description: Antimicrobial activity against Escherichia coli expressing beta-lactamase Oxa-225 by CLSI broth microdilution method

Escherichia coli [11] = test: microbe, parasite or virus in culture; remark: listed apart in the source
Description: Antimicrobial activity against Escherichia coli expressing beta-lactamase NMC-A by CLSI broth microdilution method

Escherichia coli [12] = test: microbe, parasite or virus in culture; remark: listed apart in the source
Description: Antimicrobial activity against wild type Escherichia coli by CLSI broth microdilution method

Escherichia coli [13] = test: Antimicrobial activity against Escherichia coli expressing beta-lactamase NDM-5 by CLSI broth microdilution method; type: functional
Escherichia coli [14] = test: microbe, parasite or virus in culture; remark: listed apart in the source
Description: Antimicrobial activity against Escherichia coli expressing beta-lactamase MIR-1 by CLSI broth microdilution method

Escherichia coli [15] = test: microbe, parasite or virus in culture; remark: listed apart in the source
Description: Antimicrobial activity against Escherichia coli expressing beta-lactamase TEM-47 by CLSI broth microdilution method

Escherichia coli [16] = test: microbe, parasite or virus in culture; remark: listed apart in the source
Description: Antimicrobial activity against Escherichia coli expressing beta-lactamase IMP-1 by CLSI broth microdilution method

Escherichia coli [17] = test: microbe, parasite or virus in culture; remark: listed apart in the source
Description: Antimicrobial activity against Escherichia coli expressing beta-lactamase PER-4 by CLSI broth microdilution method

Escherichia coli [18] = test: microbe, parasite or virus in culture; remark: listed apart in the source
Description: Antimicrobial activity against Escherichia coli expressing beta-lactamase Oxa-18 by CLSI broth microdilution method

[19] = Chemical stability in pH 7.4 potassium phosphate buffer assessed as half life for compound hydrolysis at 37 degC by UPLC and mass spectrometry; type: physicochemical
Escherichia coli [20] = test: microbe, parasite or virus in culture; remark: listed apart in the source
Description: Antimicrobial activity against Escherichia coli expressing beta-lactamase CTXM-3 by CLSI broth microdilution method

Escherichia coli [21] = test: microbe, parasite or virus in culture; remark: listed apart in the source
Description: Antimicrobial activity against Escherichia coli expressing beta-lactamase SPM-1 by CLSI broth microdilution method

Escherichia coli [22] = test: Antimicrobial activity against Escherichia coli expressing beta-lactamase VEB-1 by CLSI broth microdilution method; type: functional
Escherichia coli [23] = test: microbe, parasite or virus in culture; remark: listed apart in the source
Description: Antimicrobial activity against Escherichia coli expressing beta-lactamase CMY-2 by CLSI broth microdilution method

Escherichia coli [24] = test: microbe, parasite or virus in culture; remark: listed apart in the source
Description: Antimicrobial activity against Escherichia coli expressing beta-lactamase DHA by CLSI broth microdilution method

Escherichia coli [25] = test: microbe, parasite or virus in culture; remark: listed apart in the source
Description: Antimicrobial activity against Escherichia coli expressing beta-lactamase VEB-4 by CLSI broth microdilution method

Escherichia coli [26] = test: microbe, parasite or virus in culture; remark: listed apart in the source
Description: Antimicrobial activity against Escherichia coli expressing beta-lactamase SHV-12 by CLSI broth microdilution method

Escherichia coli [27] = test: microbe, parasite or virus in culture; remark: listed apart in the source
Description: Antimicrobial activity against Escherichia coli expressing beta-lactamase TEM-16 by CLSI broth microdilution method

Escherichia coli [28] = test: microbe, parasite or virus in culture; remark: listed apart in the source
Description: Antimicrobial activity against Escherichia coli expressing beta-lactamase TEM-121 by CLSI broth microdilution method

Escherichia coli [29] = test: microbe, parasite or virus in culture; remark: listed apart in the source
Description: Antimicrobial activity against Escherichia coli expressing beta-lactamase GES-1 by CLSI broth microdilution method

Enterobacteriaceae = test: Antimicrobial activity against ESBL, KPC and MBL producing Enterobacteriaceae by CLSI broth microdilution method; type: functional
Escherichia coli [30] = test: microbe, parasite or virus in culture; remark: listed apart in the source
Description: Antimicrobial activity against Escherichia coli expressing beta-lactamase KPC-4 by CLSI broth microdilution method

Escherichia coli [31] = test: microbe, parasite or virus in culture; remark: listed apart in the source
Description: Antimicrobial activity against Escherichia coli expressing beta-lactamase Oxa-40 by CLSI broth microdilution method

Escherichia coli [32] = test: microbe, parasite or virus in culture; remark: listed apart in the source
Description: Antimicrobial activity against Escherichia coli expressing beta-lactamase Oxa-10 by CLSI broth microdilution method

Escherichia coli [33] = test: microbe, parasite or virus in culture; remark: listed apart in the source
Description: Antimicrobial activity against Escherichia coli expressing beta-lactamase P99 by CLSI broth microdilution method

Escherichia coli [34] = test: microbe, parasite or virus in culture; remark: listed apart in the source
Description: Antimicrobial activity against Escherichia coli expressing beta-lactamase Oxa-23 by CLSI broth microdilution method

Escherichia coli [35] = test: microbe, parasite or virus in culture; remark: listed apart in the source
Description: Antimicrobial activity against Escherichia coli expressing beta-lactamase Oxa-181 by CLSI broth microdilution method

Escherichia coli [36] = test: microbe, parasite or virus in culture; remark: listed apart in the source
Description: Antimicrobial activity against Escherichia coli expressing beta-lactamase Oxa-160 by CLSI broth microdilution method

Escherichia coli [37] = test: microbe, parasite or virus in culture; remark: listed apart in the source
Description: Antimicrobial activity against Escherichia coli expressing beta-lactamase PER-2 by CLSI broth microdilution method

Escherichia coli [38] = test: microbe, parasite or virus in culture; remark: listed apart in the source
Description: Antimicrobial activity against Escherichia coli expressing beta-lactamase PER-1 by CLSI broth microdilution method

Escherichia coli [39] = test: microbe, parasite or virus in culture; remark: listed apart in the source
Description: Antimicrobial activity against Escherichia coli expressing beta-lactamase Oxa-51 by CLSI broth microdilution method

Escherichia coli [40] = test: microbe, parasite or virus in culture; remark: listed apart in the source
Description: Antimicrobial activity against Escherichia coli expressing beta-lactamase VEB-7 by CLSI broth microdilution method

Escherichia coli [41] = test: microbe, parasite or virus in culture; remark: listed apart in the source
Description: Antimicrobial activity against Escherichia coli expressing beta-lactamase AmpC by CLSI broth microdilution method

Escherichia coli [42] = test: Antimicrobial activity against Escherichia coli expressing beta-lactamase NDM-1 by CLSI broth microdilution method; type: functional
Escherichia coli [43] = test: microbe, parasite or virus in culture; remark: listed apart in the source
Description: Antimicrobial activity against Escherichia coli expressing beta-lactamase TEM-24 by CLSI broth microdilution method

Escherichia coli [44] = test: Antimicrobial activity against Escherichia coli expressing beta-lactamase KPC-2 by CLSI broth microdilution method; type: functional
Escherichia coli [45] = test: microbe, parasite or virus in culture; remark: listed apart in the source
Description: Antimicrobial activity against Escherichia coli expressing beta-lactamase Oxa-146 by CLSI broth microdilution method

Pseudomonas aeruginosa [46] = test: Antimicrobial activity against Pseudomonas aeruginosa expressing delta-mexB/mexXY/delta-ampDh2/ delta-ampD by CLSI broth microdilution method; type: functional
Escherichia coli [47] = test: microbe, parasite or virus in culture; remark: listed apart in the source
Description: Antimicrobial activity against Escherichia coli expressing beta-lactamase TEM-10 by CLSI broth microdilution method

Pseudomonas aeruginosa [48] = test: Antimicrobial activity against Pseudomonas aeruginosa expressing nalB/delta-mexXY/delta-mexCDoprJ/delta-ampC by CLSI broth microdilution method; type: functional
Pseudomonas aeruginosa [49] = test: Antimicrobial activity against Pseudomonas aeruginosa expressing delta-mexB/delta-mexXY/delta-mexCD and delta-ampC mutant by CLSI broth microdilution method; type: functional
Pseudomonas aeruginosa [50] = test: Antimicrobial activity against Pseudomonas aeruginosa ATCC 27853 by CLSI broth microdilution method; type: functional

C[C@@H](O)[C@H]1C(=O)N2C(C(=O)O)=C(S[C@@H]3CN[C@H](C(=O)N(C)C)C3)[C@H](C)[C@H]12 [MEROPENEM]
MIC (Escherichia coli [1]): ≤ 0.015 µg/mL | MIC (Escherichia coli [2]): 2 µg/mL (≈ 5.22 µM) | MIC (Escherichia coli [3]): 2 µg/mL (≈ 5.22 µM) | MIC (Escherichia coli [4]): 1 µg/mL (≈ 2.61 µM) | MIC (Escherichia coli [5]): 1 µg/mL (≈ 2.61 µM) | MIC (Escherichia coli [6]): 1 µg/mL (≈ 2.61 µM) | MIC (Escherichia coli [7]): ≤ 0.06 µg/mL | MIC (Escherichia coli [8]): 4 µg/mL (≈ 10.4 µM) | MIC (Escherichia coli [9]): 4 µg/mL (≈ 10.4 µM) | MIC (Escherichia coli [10]): 0.125 µg/mL (≈ 0.326 µM) | MIC (Escherichia coli [11]): 2 µg/mL (≈ 5.22 µM) | MIC (Escherichia coli [12]): ≤ 0.015 µg/mL | MIC (Escherichia coli [13]): 64 µg/mL (≈ 167 µM) | MIC (Escherichia coli [14]): ≤ 0.06 µg/mL | MIC (Escherichia coli [15]): ≤ 0.06 µg/mL | MIC (Escherichia coli [16]): 8 µg/mL (≈ 20.9 µM) | MIC (Escherichia coli [17]): ≤ 0.06 µg/mL | MIC (Escherichia coli [18]): ≤ 0.06 µg/mL | half-life [19]: 78 h | MIC (Escherichia coli [20]): ≤ 0.06 µg/mL | MIC (Escherichia coli [21]): 8 µg/mL (≈ 20.9 µM) | MIC (Escherichia coli [22]): ≤ 0.06 µg/mL | MIC (Escherichia coli [23]): ≤ 0.06 µg/mL | MIC (Escherichia coli [24]): ≤ 0.06 µg/mL | MIC (Escherichia coli [25]): ≤ 0.06 µg/mL | MIC (Escherichia coli [26]): ≤ 0.015 µg/mL | MIC (Escherichia coli [27]): ≤ 0.06 µg/mL | MIC (Escherichia coli [28]): ≤ 0.06 µg/mL | MIC (Escherichia coli [29]): ≤ 0.06 µg/mL | MIC90 (Enterobacteriaceae): 32 µg/mL (≈ 83.4 µM) | MIC (Escherichia coli [30]): 1 µg/mL (≈ 2.61 µM) | MIC (Escherichia coli [31]): 1 µg/mL (≈ 2.61 µM) | MIC (Escherichia coli [32]): ≤ 0.06 µg/mL | MIC (Escherichia coli [33]): ≤ 0.06 µg/mL | MIC (Escherichia coli [34]): 0.125 µg/mL (≈ 0.326 µM) | MIC (Escherichia coli [35]): 0.5 µg/mL (≈ 1.3 µM) | MIC (Escherichia coli [36]): 0.25 µg/mL (≈ 0.652 µM) | MIC (Escherichia coli [37]): ≤ 0.06 µg/mL | MIC (Escherichia coli [38]): ≤ 0.06 µg/mL | MIC (Escherichia coli [39]): ≤ 0.015 µg/mL | MIC (Escherichia coli [40]): ≤ 0.06 µg/mL | MIC (Escherichia coli [41]): ≤ 0.015 µg/mL | MIC (Escherichia coli [42]): 16 to 64 µg/mL (≈ 41.7 to 167 µM) | MIC (Escherichia coli [43]): ≤ 0.06 µg/mL | MIC (Escherichia coli [44]): 2 µg/mL (≈ 5.22 µM) | MIC (Escherichia coli [45]): 0.125 µg/mL (≈ 0.326 µM)

Nc1nc(/C(=N/OC2(C(=O)O)CC2)C(=O)N[C@@H]2C(=O)N(S(=O)(=O)O)[C@H]2CN2CCOC2=O)cs1 (stereo in doubt)
MIC (Escherichia coli [1]): 0.5 µg/mL (≈ 0.964 µM) | MIC (Escherichia coli [12]): 0.25 µg/mL (≈ 0.482 µM) | MIC (Pseudomonas aeruginosa [46]): > 64 µg/mL | half-life [19]: 450 h | MIC (Escherichia coli [47]): 32 µg/mL (≈ 61.7 µM) | MIC (Pseudomonas aeruginosa [48]): > 64 µg/mL | MIC (Pseudomonas aeruginosa [49]): 2 µg/mL (≈ 3.86 µM) | MIC (Escherichia coli [23]): 2 µg/mL (≈ 3.86 µM) | MIC (Escherichia coli [26]): 64 µg/mL (≈ 123 µM) | MIC (Pseudomonas aeruginosa [50]): > 64 µg/mL | MIC (Escherichia coli [41]): 0.5 µg/mL (≈ 0.964 µM) | MIC (Escherichia coli [42]): 0.25 µg/mL (≈ 0.482 µM) | MIC (Escherichia coli [44]): 0.5 µg/mL (≈ 0.964 µM)

CC(C)(O/N=C(\C(=O)N[C@@H]1C(=O)N(S(=O)(=O)O)[C@@H]1Cn1cncn1)c1csc(N)n1)C(=O)O (stereo in doubt)
MIC (Escherichia coli [1]): 0.5 µg/mL (≈ 0.995 µM) | MIC (Escherichia coli [12]): 0.5 µg/mL (≈ 0.995 µM) | MIC (Pseudomonas aeruginosa [46]): > 64 µg/mL | half-life [19]: 233 h | MIC (Escherichia coli [47]): 1 µg/mL (≈ 1.99 µM) | MIC (Pseudomonas aeruginosa [48]): > 64 µg/mL | MIC (Pseudomonas aeruginosa [49]): 1 µg/mL (≈ 1.99 µM) | MIC (Escherichia coli [23]): 8 µg/mL (≈ 15.9 µM) | MIC (Escherichia coli [26]): 1 µg/mL (≈ 1.99 µM) | MIC (Pseudomonas aeruginosa [50]): 32 µg/mL (≈ 63.7 µM) | MIC (Escherichia coli [41]): 16 µg/mL (≈ 31.8 µM) | MIC (Escherichia coli [42]): 0.5 µg/mL (≈ 0.995 µM) | MIC (Escherichia coli [44]): 1 µg/mL (≈ 1.99 µM)

CC(C)(O/N=C(\C(=O)N[C@@H]1C(=O)N(S(=O)(=O)O)[C@@H]1Cn1cncn1)c1nsc(N)n1)C(=O)O
MIC (Escherichia coli [1]): 1 µg/mL (≈ 1.99 µM) | MIC (Escherichia coli [12]): 1 µg/mL (≈ 1.99 µM) | MIC (Pseudomonas aeruginosa [46]): > 64 µg/mL | MIC (Escherichia coli [47]): 8 µg/mL (≈ 15.9 µM) | MIC (Pseudomonas aeruginosa [48]): > 64 µg/mL | MIC (Pseudomonas aeruginosa [49]): 1 µg/mL (≈ 1.99 µM) | MIC (Escherichia coli [23]): 16 µg/mL (≈ 31.8 µM) | MIC (Escherichia coli [26]): 8 µg/mL (≈ 15.9 µM) | MIC (Pseudomonas aeruginosa [50]): 32 µg/mL (≈ 63.6 µM) | MIC (Escherichia coli [41]): 32 µg/mL (≈ 63.6 µM) | MIC (Escherichia coli [44]): 2 µg/mL (≈ 3.97 µM)
